Source: patent publication US7514251B2, “O-methyltransferases of tetrahydrobenzylisoquinoline alkaloid biosynthesis in Papaver somniferum” (priority 2003, dated 2009)
Where two headings read alike, the source gives them in different places. Marks after values point to notes of the source that are not given here.

Legend:
[1] = target: T1, PSOMT1 ((R,S)-reticuline 7-O-methyltransferase) (Papaver somniferum, UniProt Q6WUC2); format: biochemical; conditions: for methylated by PSOMT1 (radioassay, in words): one of forty substrates tested; for Km: read-out: Km Substrate
T1 construct: The full-length cDNA generated by RT-PCR was ligated into pFastBac HTa; His6 (N); made in house; host or cells: Spodoptera frugiperda Sf9 (baculovirus, pFastBac HTa)
T1 sequence (Q6WUC2 whole entry): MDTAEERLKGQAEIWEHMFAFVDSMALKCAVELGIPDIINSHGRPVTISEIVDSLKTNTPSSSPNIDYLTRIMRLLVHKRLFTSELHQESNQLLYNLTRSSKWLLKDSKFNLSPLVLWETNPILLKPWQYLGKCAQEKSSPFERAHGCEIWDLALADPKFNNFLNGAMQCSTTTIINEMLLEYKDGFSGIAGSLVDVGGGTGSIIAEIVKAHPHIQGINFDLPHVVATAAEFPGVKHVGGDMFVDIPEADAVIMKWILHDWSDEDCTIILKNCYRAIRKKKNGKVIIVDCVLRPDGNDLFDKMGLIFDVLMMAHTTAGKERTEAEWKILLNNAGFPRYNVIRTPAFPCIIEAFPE
Source text: (§1) Heterologous Expression and Enzyme Purification—The full-length cDNA generated by RT-PCR was ligated into pFastBac HTa that had been digested with restriction endonucleases BamHI and NotI. The recombinant plasmid was transposed into baculovirus DNA in the Escherichia coli strain DH10BAC (Life Technologies) and then transfected into Spodoptera frugiperda Sf9 cells according to the manufacturer's instructions. The insect cells were propagated and the recombinant virus was amplified according to (16,17). INSECT-XPRESS serum-free medium (Bio Whittaker) was used in the enzyme expression experiments.
(§2) After infection of 20 ml suspension grown insect cells had proceded for 3-4 days at 28° C. and 130 rpm, the cells were removed by centrifugation under sterile conditions at 900× g for 5 min at 4° C. All subsequent steps were performed at 4° C. The pellet was discarded and to the medium was added 0.73 g NaCl, 2.5 ml glycerol and 50 μl […]-mercaptoethanol. The pH was adjusted to 7.0 with 1.0 M NaOH. The His-tagged O-methyltransferase was then purified by affinity chromatography using a cobalt resin (Talon, Clontech) according to the manufacturer's instructions.
(§3) Enzyme assay and product identification: The O-methylation reactions catalysed by the two O-methyltransferases were assayed at least two times in duplicate according to Rüffer et al. (1983a; 1983b) as follows. Substrate (25 nmol), [methyl-3H]-AdoMet (20,000 dpm, 0.4 fmol), AdoMet (10 nmol) Tris/HC1 buffer pH 8.0 (10 μmol), ascorbate (5 μmol) and 5-10 μg of enzyme were incubated in a total volume of 150 μl at 35° C. for 5-60 min. The enzymic reaction was terminated by addition of 200 μl ethylacetate. The organic phase ([…]) was added to 3 ml high flash point liquid scintillation cocktail (Packard) and the radioactivity quantified with a Beckman LS6000TA liquid scintillation counter.
(§4) General Methods—Total RNA was isolated and RNA gels were run and blotted as described previously (20). Genomic DNA was isolated and DNA gels were run and blotted according to (21). cDNA clones were labeled by PCR labeling with [[…]-^32P]dATP. Hybridized RNA on RNA gel blots and DNA on DNA gel blots were visualized with a STORM phosphor imager (Molecular Dynamics). The entire nucleotide sequence on both DNA strands of the full-length clone was determined by dideoxy cycle sequencing using internal DNA sequences for the design of deoxyoligonucleotides as sequencing primers. Saturation curves and double reciprocal plots were constructed with the Fig. P program Version 2.7 (Biosoft, Cambridge, UK). The influence of pH on enzyme activity was monitored in sodium citrate (pH 4-6), sodium phosphate (pH 6-7.0) and Tris-HCl (pH 7.0-9), glycine/NaOH (pH 9-10.5) buffered solutions.

[2] = target: T2, PSOMT2 ((R,S)-norcoclaurine 6-O-methyltransferase) (Papaver somniferum, UniProt Q6WUC1); test: Radioassay of recombinant PSOMT2 with [methyl-3H]-AdoMet (substrate specificity, kinetics, pH and temperature optima); format: biochemical; conditions: for Substrate specificity, relative activity of PSOMT2: 100% activity = 2.0 pmoles/sec/mg total protein, radioassay
T2 construct: The full-length cDNA generated by RT-PCR was ligated into pFastBac HTa; His6 (N); made in house; host or cells: Spodoptera frugiperda Sf9 (baculovirus, pFastBac HTa)
T2 sequence (Q6WUC1 1-346): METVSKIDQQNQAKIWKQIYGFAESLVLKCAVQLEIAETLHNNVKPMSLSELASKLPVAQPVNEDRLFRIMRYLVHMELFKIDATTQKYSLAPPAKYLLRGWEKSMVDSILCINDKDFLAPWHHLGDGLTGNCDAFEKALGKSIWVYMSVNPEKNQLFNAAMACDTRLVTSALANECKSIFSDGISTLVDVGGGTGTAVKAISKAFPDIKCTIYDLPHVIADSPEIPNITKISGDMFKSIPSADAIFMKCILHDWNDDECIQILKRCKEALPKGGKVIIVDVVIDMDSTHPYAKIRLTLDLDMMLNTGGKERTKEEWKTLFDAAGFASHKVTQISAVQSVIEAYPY
Source text: as §1, §2, §3, §4

[3] = 100% activity = 1.5 pmoles/sec/mg total protein, radioassay

| SMILES | Substrate specificity, relative activity of PSOMT1 [1, 3] | Substrate specificity, relative activity of PSOMT2 [2] | further results |
| --- | --- | --- | --- |
| COc1ccc(CC2NCCc3cc(OC)c(O)cc32)cc1 (racemic) [(R,S)-4′-O-methylcoclaurine] | 0% | 0% |  |
| COc1cc2c(cc1O)C(Cc1ccc(O)c(O)c1)N(C)CC2 (racemic) [(R,S)-6-O-Methyllaudanosoline] | 0% | 0% |  |
| COc1cc2c(cc1O)[C@H](Cc1ccc(OC)c(OC)c1)N(C)CC2 (racemic) [(R,S)-Codamine] | 0% | 0% |  |
| COc1cc2c(cc1O)CCNC2Cc1ccc(O)cc1 (racemic) [(R,S)-Isococlaurine] | 0% | 0% |  |
| COc1ccc(CC2c3cc(OC)c(OC)cc3CCN2C)cc1O (racemic) [(R,S)-Laudanidine] | 0% | 0% |  |
| COc1cc2c(cc1O)C(Cc1ccc(O)cc1)N(C)CC2 (racemic) [(R,S)-N-Methylcoclaurine] | 0% | 0% |  |
| Oc1ccc(CC2NCCc3cc(O)c(O)cc32)cc1 (racemic) [(R,S)-Norcoclaurine] | 0% | 100^a % | Vmax Substrate ([2]; PSOMT2): 5 pmol/s; kcat Substrate ([2]; PSOMT2): 0.08 s⁻¹; Km ([2]; PSOMT2, co-substrate AdoMet with the named substrate, read-out: Km AdoMet): 100 µM; Km ([2]; PSOMT2, read-out: Km Substrate): 10 µM; pH range of methylation ([2]; PSOMT2, wide pH range): 6.0-9.0; methylated by PSOMT2 (radioassay, in words) ([2]; one of forty substrates tested): methylating |
| COc1cc(CC2NCCc3cc(OC)c(O)cc32)ccc1O (racemic) [(R,S)-Nororientaline] | 0% | 0% |  |
| COc1ccc2c(c1)CCN[C@@H]2Cc1ccc(OC)c(O)c1 [(R)-7-Dehydroxy-norreticuline] | 0% | 0% |  |
| COc1ccc(C[C@H]2NCCc3cc(OC)c(O)cc32)cc1O [(R)-Norreticuline] | 0% | 0% |  |
| COc1ccc(C[C@H]2c3cc(O)c(O)cc3CCN2C)cc1O [(S)-4′-O-Methyllaudanosoline] | 0% | 0% |  |
| COc1ccc2c(c1)CCN[C@H]2Cc1ccc(OC)c(O)c1 [(S)-7-Dehydroxy-norreticuline] | 0% | 0% |  |
| COc1cc2c(cc1O)[C@H](Cc1ccc(O)cc1)NCC2 [(S)-Coclaurine] | 0% | 0% |  |
| COc1cc2c(cc1O)C[C@H]1c3cc(O)c(OC)cc3CCN1C2 [(S)-Coreximine] | 0% | 0% |  |
| COc1ccc(C[C@@H]2NCCc3cc(OC)c(O)cc32)cc1O [(S)-Norreticuline] | 0% | 0% |  |
| COc1cc2c(cc1O)[C@@H]1Cc3ccc(OC)c(O)c3CN1CC2 [(S)-Scoulerine] | 0% | 0% |  |
| O=C(O)/C=C/c1ccc(O)c(O)c1 [Caffeic acid] | 0% | 0% |  |
| Oc1ccccc1O [Catechol] | 0% | 0% |  |
| NCCc1ccc(O)c(O)c1 [Dopamine] |  | 0% | Substrate specificity, relative activity of PSOMT1 [1]: 0% |
| O=c1ccc2cc(O)c(O)cc2o1 [Esculetin] | 0% | 0% |  |
| COc1ccccc1O [Guaiacol] | 242% | 0% | Vmax Substrate ([1]; PSOMT1): 6 pmol/s; kcat Substrate ([1]; PSOMT1): 0.1 s⁻¹; kcat/Km ratio relative to the values determined for reticuline ([1]; PSOMT1): 135%; pH optimum of methylation ([1]; PSOMT1): 8.0; ratio kcat/Km ([1]; PSOMT1): 5870 M⁻¹ s⁻¹; temperature optimum ([1]; PSOMT1): 37 °C; methylated by PSOMT1 (radioassay, in words) [1]: methylates; Km ([1]; PSOMT1): 17 µM |
| COc1ccc(C(=O)O)cc1O [Isovanillic acid] | 40% | 0% | Vmax Substrate ([1]; PSOMT1): 1 pmol/s; kcat Substrate ([1]; PSOMT1): 0.02 s⁻¹; pH optimum of methylation ([1]; PSOMT1): 7.5; ratio kcat/Km ([1]; PSOMT1): 1210 M⁻¹ s⁻¹; methylated by PSOMT1 (radioassay, in words) [1]: methylates; Km ([1]; PSOMT1): 14 µM |
| O=c1c(O)c(-c2ccc(O)cc2O)oc2cc(O)cc(O)c12 [Morin] | 0% | 0% |  |
| CN1CC[C@]23c4c5ccc(O)c4O[C@H]2[C@@H](O)C=C[C@H]3[C@H]1C5 [Morphine] | 0% | 0% |  |
| O=C(O)c1ccc(O)c(O)c1 [Protocatechuic acid] | 0% | 0% |  |
| COc1c(-c2ccc(O)c(O)c2)oc2cc(O)cc(O)c2c1=O [Quercetin-3-methylether] | 0% | 0% |  |
| COc1cc(O)c2c(=O)c(O)c(-c3ccc(O)c(O)c3)oc2c1 [Quercetin-7-methylether] | 0% | 0% |  |
| O=c1c(O)c(-c2ccc(O)c(O)c2)oc2cc(O)cc(O)c12 [Quercetin] | 0% | 0% |  |
| COC1=C[C@]23CCN(C)[C@H](Cc4ccc(OC)c(O)c42)C3=CC1=O [Salutaridine] | 0% | 0% |  |
| COc1cc(C(=O)O)ccc1O [Vanillic acid] | 0% | 0% |  |
